Key:
Type in all cases: biochemical
[1] = system: template-independent terminal deoxynucleotidyl transferase (TdT) enzyme; assay: Single base addition to single-stranded nucleotide sequence catalysed by TdT (overall conclusion); conditions: for termination of further base incorporation: summary of tailing experiments; for incorporation in single stranded oligonucleotide via the catalysis of TdT: summary, recombinant or engineered TdT
Description: A series of screening experiments were designed and conducted to test the recognition of the reversible terminators nucleoside triphosphate reversible terminators designed in accordance with various embodiments disclosed herein by template-independent polymerase and the efficiency of the incorporation of such reversible terminators into the nucleic acid chain. In these experiments, the template-independent polymerase used is recombinant or engineered template-independent terminal deoxynucleotidyl transferase (TdT) enzyme and the initiator used is a single-stranded oligonucleotide sequence.

[2] = system: engineered terminal deoxynucleotidyl transferase (TdT); assay: Tailing experiment design, screening of RT-dTTPs with eTdT as enzyme; conditions: for incorporation into the original FAM-20-mer (21-mer product): eTdT as enzyme, PAGE, FIG. 8A and FIG. 8B; for incorporation yield, eTdT compared with rTdT: catalytic activity of rTdT compared with eTdT, FIG. 10
Description: (§1) In this experimental design (FIG. 5), single-stranded deoxyoligonucleotides (20 nt) 102 with FAM tagged on 5′ end reacts with RT-dNTP 104 using TdT as the catalyst, and produce 21-mer (102a and 102b).
(§2) As the incorporation is not 100%, the unreacted FAM tagged oligo will further react with natural deoxynucleotidyl triphosphates (dATP) 106, and produces tailing products 102c. The 21-mer (102a and 102b) and tailing products (102c) can be separated by polyacrylamide gel electrophoresis.
(§3) 1. Set up the following reactions
(§4) 2. Incubate the solution at 37° C. for 60 min
(§5) 3. Purification • Desalt with Zymo column Oligo Clean & Concentrator D4061 (following manufacturer's protocol) to obtain 15 μL aqueous solution and concentrate on speedvac to dry
(§6) 4. Set up the following reactions
(§7) 5. Incubate at 37° C. for 60 min
(§8) 6. Stop the reaction by heating at 70° C. for 10 min
(§9) 7. Purification • Desalt with Zymo column Oligo Clean & Concentrator D4061 (following manufacturer's protocol) to obtain 15 μL aqueous solution and concentrate on speedvac to dry
(§10) 8. Denaturing PAGE (20% urea PAGE, 200V for 90 min) • Preheat 1×TBE buffer at 65° C. • Set up gel in gel tank, flush wells, pre-run 20% urea polyacrylamide gel at 200V for 30 min • Prepare loading sample (dry sample+2.5 μL 1×TBE, 0.5 μL loading buffer), preheat sample at 95° C. for 10 min • Flush each well 3 times to remove urea in wells, load sample, and run for 90 min • Image under UV light without post staining. If post staining is needed, SYBR Gold is used.
(§11) In evaluating the RT-dTTP(s)'s incorporation and termination activities using tailing experiment design, two types of TdTs are used for the evaluation studies: recombinant TdT (rTdT) purchased from Promega and engineered TdT (eTdT).

rTdT = biological target: T1, rTdT (Bos taurus, UniProt P06526); assay: Laddering experiment design (dATP / RT-dTTP ratios); conditions: laddering experiments, FIG. 11; compared with Az-dTTP
T1 construct: purchased Promega
T1 sequence (P06526 whole entry): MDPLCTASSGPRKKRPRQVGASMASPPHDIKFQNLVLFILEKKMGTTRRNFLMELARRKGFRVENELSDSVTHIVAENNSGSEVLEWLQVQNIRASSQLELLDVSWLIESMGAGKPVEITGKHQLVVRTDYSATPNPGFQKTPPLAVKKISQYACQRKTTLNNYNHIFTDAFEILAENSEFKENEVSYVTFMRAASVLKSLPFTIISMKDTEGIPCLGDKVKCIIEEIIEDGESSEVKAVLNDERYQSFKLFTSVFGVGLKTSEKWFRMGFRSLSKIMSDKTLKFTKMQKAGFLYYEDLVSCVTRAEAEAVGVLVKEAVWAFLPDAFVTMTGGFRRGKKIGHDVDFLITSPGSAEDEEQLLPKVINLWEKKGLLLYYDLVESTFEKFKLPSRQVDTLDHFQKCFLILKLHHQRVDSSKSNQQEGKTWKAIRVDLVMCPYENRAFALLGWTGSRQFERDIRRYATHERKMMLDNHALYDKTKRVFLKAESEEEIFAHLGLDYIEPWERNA
Description: The laddering experiment design is to differentiate the ratio between natural dNTP and RT-dNTP.
as §3
2. Incubate at 37° C. for 60 min
3. Stop the reaction by heating at 70° C. for 10 min
4. Purification • Desalt with Zymo column Oligo Clean & Concentrator D4061 (following manufacturer's protocol) to obtain 15 μL aqueous solution and concentrate on speedvac to dry
as §10, with “5.” for “8.”

[3] = system: terminal deoxynucleotidyl transferase (TdT); assay: Evaluation of reversibility of reversible terminators (incorporation, capping, deprotection, elongation); conditions: elongation by TdT after deprotection of CE or DT
Description: Once RT-dTTP is incorporated to the single-stranded oligonucleotide, the reversible terminator needs to be removed to enable the next base incorporation. […] The reaction will produce a mixture of products which includes the reversibly terminated 21-mer (202a and 202b) and unreacted original 20-mer 202. Then azido-ddGTP 206 will be added to 3′-termini of the unreacted 20-mer 202. As 3′ termini become a dideoxynucleotide 202c, the azido oligonucleotide will not be able to further react with any dTTP via TdT. Then reversibly terminator will be removed in certain conditions, and further incorporated with natural dTTP 208 via TdT.
1. Set Up the Following Reactions
as §4
3. Purification • Desalt with Zymo column Oligo Clean & Concentrator D4061 (following protocol) to obtain 15 μL aqueous solution and concentrate on speedvac to dry
4. Add 85 μL of 30% NH4OH and heat at 80° C. for 1 h
5. Purification • Desalt with Zymo column Oligo Clean & Concentrator D4061 (following protocol) to obtain 15 μL aqueous solution and concentrate on speedvac to dry Elongation of Nucleotide with Natural dATP:
6. Set up the following reactions
7. Incubate at 37° C. for 60 min
8. Stop the reaction by heating at 70° C. for 10 min
9. Purification • Desalt with Zymo column Oligo Clean & Concentrator D4061 (following protocol) to obtain 15 μL aqueous solution and concentrate on speedvac to dry […]

[4] = biological target: T2, recombinant terminal deoxynucleotidyl transferase (TdT) (Bos taurus, UniProt P06526); assay: Tailing experiment design, screening of RT-dTTPs with rTdT as enzyme; conditions: 37° C. for 60 min, PAGE, FIG. 6A, FIG. 7
T2 construct: purchased Promega
T2 sequence (P06526 whole entry): as above
Description: as §1, §2, §3, §4, §5, §6, §7, §8, §9, §10, §11

C=CCOCO[C@H]1C[C@H](n2cc(C)c(=O)[nH]c2=O)O[C@@H]1COP(=O)(O)OP(=O)(O)OP(=O)(O)O [AL-dTTP, (allyloxy)methyl (ALM)-dTTP]
termination of further base incorporation [1]: terminate further base incorporation
incorporation in single stranded oligonucleotide via the catalysis of TdT [1]: successfully incorporated
incorporation into the original FAM-20-mer (21-mer product) [2]: gave 21-mer products

Cc1cn(C2CC(OCN=[N+]=[N-])C(COP(=O)(O)OP(=O)(O)OP(=O)(O)O)O2)c(=O)[nH]c1=O (stereo not shown) [Az-dTTP, reference compound]
incorporation yield, eTdT compared with rTdT [2]: much high incorporation yield than rTdT

Cc1cn([C@H]2C[C@H](OCCC#N)[C@@H](COP(=O)(O)OP(=O)(O)OP(=O)(O)O)O2)c(=O)[nH]c1=O [CE-dTTP, 2-cyanoethyl ether (CE)-dTTP]
termination of the reaction (rTdT): can terminate the reaction as well as Az-dTTP
further incorporation of natural nucleotide after deprotection [3]: able to incorporate with natural dTTP
incorporation yield, eTdT compared with rTdT [2]: much high incorporation yield than rTdT

Cc1cn([C@H]2C[C@H](OC(=O)OCCSSC(C)(C)C)[C@@H](COP(=O)(O)OP(=O)(O)OP(=O)(O)O)O2)c(=O)[nH]c1=O [DT-dTTP, disulfide carbonate (DT)-dTTP]
termination of the reaction (rTdT): can terminate the reaction as well as Az-dTTP
further incorporation of natural nucleotide after deprotection [3]: able to incorporate with natural dTTP
termination of further base incorporation [1]: terminate further base incorporation
incorporation in single stranded oligonucleotide via the catalysis of TdT [1]: successfully incorporated
incorporation into the original FAM-20-mer (21-mer product) [2]: gave 21-mer products
incorporation into the original FAM-20-mer (21-mer product) [4]: particularly good yield of 21-mer

Cc1cn([C@H]2C[C@H](OCOCc3ccc([N+](=O)[O-])cc3)[C@@H](COP(=O)(O)OP(=O)(O)OP(=O)(O)O)O2)c(=O)[nH]c1=O [PNBA-dTTP, 4-nitrobenzyloxy-methyl (PNBA)-dTTP]
termination of further base incorporation [1]: terminate further base incorporation
incorporation in single stranded oligonucleotide via the catalysis of TdT [1]: successfully incorporated
incorporation into the original FAM-20-mer (21-mer product) [2]: gave 21-mer products
incorporation into the original FAM-20-mer (21-mer product) [4]: gave 21-mer products

Cc1cn([C@H]2C[C@H](OCOCC[Si](C)(C)C)[C@@H](COP(=O)(O)OP(=O)(O)OP(=O)(O)O)O2)c(=O)[nH]c1=O [SEM-dTTP, 2-(trimethylsilyl)ethoxymethyl (SEM)-dTTP]
termination of further base incorporation [1]: terminate further base incorporation
incorporation in single stranded oligonucleotide via the catalysis of TdT [1]: successfully incorporated
incorporation into the original FAM-20-mer (21-mer product) [2]: gave 21-mer products
incorporation into the original FAM-20-mer (21-mer product) [4]: gave 21-mer products

dithianemethyl acetal (DMA)-dTTP [DMA-dTTP]
termination of further base incorporation [1]: terminate further base incorporation
incorporation in single stranded oligonucleotide via the catalysis of TdT [1]: successfully incorporated
incorporation into the original FAM-20-mer (21-mer product) [2]: gave 21-mer products
incorporation into the original FAM-20-mer (21-mer product) [4]: gave 21-mer products

Reference: patent US20230148152A1, “METHOD OF SYNTHESIZING SINGLE-STRANDED NUCLEOTIDE SEQUENCE, BLOCKED NUCLEOSIDE TRIPHOSPHATES AND RELATED METHODS” (Agency for Science, Technology and Research, priority 2019, published 2023)
